Laboratory results: patent US11040981B2, “Pyrrolotriazine compounds and methods of inhibiting TAM kinases” (Syros Pharmaceuticals, Inc., priority 2017, dated 2021)
pIC50: −log10 of the molar value.

Tests used:
FLT3 = molecular target: T1, FLT3 (Homo sapiens, UniProt P36888); test: TR-FRET kinase activity assay, FLT3; type: biochemical; conditions: ATP at Km, 60 minutes
T1 sequence (P36888 27-993): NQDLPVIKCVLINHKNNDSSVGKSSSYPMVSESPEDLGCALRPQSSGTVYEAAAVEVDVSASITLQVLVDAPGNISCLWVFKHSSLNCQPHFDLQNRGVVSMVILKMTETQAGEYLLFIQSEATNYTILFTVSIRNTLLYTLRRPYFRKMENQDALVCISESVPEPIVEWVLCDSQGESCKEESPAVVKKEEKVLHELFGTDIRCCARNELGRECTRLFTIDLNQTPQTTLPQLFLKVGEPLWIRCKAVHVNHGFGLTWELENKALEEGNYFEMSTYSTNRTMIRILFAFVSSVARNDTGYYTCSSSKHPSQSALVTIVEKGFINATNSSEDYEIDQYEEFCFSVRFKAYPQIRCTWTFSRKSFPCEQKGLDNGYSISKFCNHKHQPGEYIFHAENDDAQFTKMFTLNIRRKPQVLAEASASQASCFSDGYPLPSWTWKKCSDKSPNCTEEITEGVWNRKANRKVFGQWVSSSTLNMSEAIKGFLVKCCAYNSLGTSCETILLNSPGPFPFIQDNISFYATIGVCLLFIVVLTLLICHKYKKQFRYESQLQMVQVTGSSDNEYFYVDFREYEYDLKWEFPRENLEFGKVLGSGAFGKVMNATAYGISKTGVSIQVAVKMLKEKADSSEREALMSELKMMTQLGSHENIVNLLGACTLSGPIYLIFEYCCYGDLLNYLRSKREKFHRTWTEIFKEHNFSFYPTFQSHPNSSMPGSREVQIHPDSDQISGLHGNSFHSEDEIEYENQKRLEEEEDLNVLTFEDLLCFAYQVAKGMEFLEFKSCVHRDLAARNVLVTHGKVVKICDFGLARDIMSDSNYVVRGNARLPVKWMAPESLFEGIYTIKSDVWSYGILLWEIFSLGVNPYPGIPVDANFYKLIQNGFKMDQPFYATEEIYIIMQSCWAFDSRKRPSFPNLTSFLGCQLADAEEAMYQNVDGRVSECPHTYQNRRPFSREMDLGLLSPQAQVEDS
How it was run: (§1)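 Compounds were tested against each kinase with ATP set at its own Km and a labelled tyrosine peptide substrate. Following one hour at room temperature in buffer containing 10 mM MgCl2 and 1 mM DTT, phosphorylated product was detected by Europium antibody TR-FRET after EDTA quench, and IC50 values were calculated.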

AXL = molecular target: T2, AXL (Homo sapiens, UniProt P30530); test: TR-FRET kinase activity assay, AXL; type: biochemical; conditions: ATP at Km, 60 minutes
T2 sequence (P30530 26-894): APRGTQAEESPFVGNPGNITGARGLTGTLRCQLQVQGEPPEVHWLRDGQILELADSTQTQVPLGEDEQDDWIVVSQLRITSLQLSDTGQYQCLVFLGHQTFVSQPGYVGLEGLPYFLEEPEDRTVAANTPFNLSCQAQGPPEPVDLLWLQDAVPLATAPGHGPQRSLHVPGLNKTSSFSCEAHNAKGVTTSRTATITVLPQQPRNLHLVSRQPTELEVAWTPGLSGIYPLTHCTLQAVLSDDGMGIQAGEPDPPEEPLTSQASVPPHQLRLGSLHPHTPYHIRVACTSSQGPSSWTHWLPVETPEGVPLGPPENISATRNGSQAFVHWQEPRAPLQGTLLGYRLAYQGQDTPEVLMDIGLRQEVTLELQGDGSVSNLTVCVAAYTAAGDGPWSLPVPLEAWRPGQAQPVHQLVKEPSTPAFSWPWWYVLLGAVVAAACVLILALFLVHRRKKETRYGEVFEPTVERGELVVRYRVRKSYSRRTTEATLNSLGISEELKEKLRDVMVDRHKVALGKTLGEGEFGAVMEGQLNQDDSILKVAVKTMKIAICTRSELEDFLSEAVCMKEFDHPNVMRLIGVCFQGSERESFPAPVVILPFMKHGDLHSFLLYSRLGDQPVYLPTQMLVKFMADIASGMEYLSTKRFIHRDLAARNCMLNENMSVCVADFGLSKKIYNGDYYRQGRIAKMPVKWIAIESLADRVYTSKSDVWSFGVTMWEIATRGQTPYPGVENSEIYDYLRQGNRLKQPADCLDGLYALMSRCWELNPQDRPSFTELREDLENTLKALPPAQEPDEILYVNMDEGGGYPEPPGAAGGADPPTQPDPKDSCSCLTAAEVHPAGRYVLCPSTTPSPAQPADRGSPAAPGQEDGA
How it was run: as §1

pIC50 (FLT3)	pIC50 (AXL)	Structure (SMILES)
6.00 to 7.00	≥ 7.00	COC[C@H](C)Nc1ncc2c(-c3cnn(Cc4nnc(C)s4)c3)cc([C@H]3CC[C@H](O)CC3)n2n1 [Compound 596]
≥ 7.00	≥ 7.00	CC(CC#N)Nc1ncc2c(-c3ccc(CN4CCN(C)CC4)cc3)cc(C3CCC(O)CC3)n2n1 (stereo not shown) [Compound 145]
≥ 7.00	≥ 7.00	COC[C@H](C)Nc1ncc2c(-c3cnn(C4COC4)c3)cc([C@H]3CCc4[nH]ncc4C3)n2n1 [Compound 624]
5.00 to 6.00	≥ 7.00	COC[C@H](C)Nc1ncc2c(-c3cnn(C(C)(C)c4nnc([C@H]5CCCO5)o4)c3)cc([C@H]3CC[C@H](O)CC3)n2n1 [Compound 602]
≥ 7.00	≥ 7.00	COCC(C)Nc1ncc2c(-c3ccc(C(C)N4CCOCC4)cc3)cc(C3CCC(O)CC3)n2n1 (stereo not shown) [Compound 182]
5.00 to 6.00	≥ 7.00	COC[C@H](C)Nc1ncc2c(-c3cnn(C(C)(C)c4nnc(C(F)(F)F)o4)c3)cc([C@H]3CC[C@H](O)CC3)n2n1 [Compound 603]
5.00 to 6.00	≥ 7.00	COC[C@H](C)Nc1ncc2c(-c3ccnc(S(C)(=O)=O)c3)cc(C3CCC(O)CC3)n2n1 (stereo partly shown) [Compound 627]
5.00 to 6.00	≥ 7.00	COC[C@H](C)Nc1ncc2c(-c3cnn(C(C)(C)c4nnc(N5CCOCC5)o4)c3)cc(C3CCC(O)CC3)n2n1 (stereo partly shown) [Compound 631]
6.00 to 7.00	≥ 7.00	COC[C@H](C)Nc1ncc2c(-c3cnn(C(C)(C)C(=O)N4CCCC(C)(O)C4)c3)cc([C@H]3CC[C@H](O)CC3)n2n1 (stereo partly shown) [Compound 621]
5.00 to 6.00	5.00 to 6.00	COC[C@H](C)Nc1ncc2c(-c3cnccc3C)cc([C@H]3CC[C@H](O)CC3)n2n1 [Compound 168]
5.00 to 6.00	5.00 to 6.00	COC[C@H](C)N(C)c1ncc2c(-c3ccnc(C)c3)cc([C@H]3CC[C@H](O)CC3)n2n1 [Compound 175, (trans)-4-(2-(((S)-1-methoxypropan-2-yl)(methyl)amino)-5-(2-methylpyridin-4-yl)pyrrolo[2,1-f][1,2,4]triazin-7-yl)cyclohexanol]
5.00 to 6.00	5.00 to 6.00	COC[C@H](C)Nc1ncc2c(N3CC4(COC4)CC3=O)cc([C@H]3CC[C@H](O)CC3)n2n1 [Compound 178]
5.00 to 6.00	6.00 to 7.00	COC[C@H](C)Nc1ncc2c(-c3cnn(CC(=O)NS(C)(=O)=O)c3)cc([C@H]3CC[C@H](O)CC3)n2n1 [Compound 174]
6.00 to 7.00	≥ 7.00	COC[C@H](C)Nc1ncc2c(-c3ccc(CN4CCOCC4)cc3)cc([C@H]3CC[C@@H](O)CC3)n2n1 [Compound 163, (cis)-4-(2-(((S)-1-methoxypropan-2-yl)amino)-5-(4-(morpholinomethyl)phenyl)pyrrolo[2,1-f][1,2,4]triazin-7-yl)cyclohexanol]
5.00 to 6.00	≥ 7.00	COC[C@H](C)Nc1ncc2c(-c3ccc(C#N)c(F)c3)cc([C@H]3CC[C@H](O)CC3)n2n1 [Compound 169]
≥ 7.00	6.00 to 7.00	COCCC(C)Nc1ncc2c(-c3ccc(CN4CCCC4)cc3)cc(C3CCC(O)CC3)n2n1 (stereo not shown) [Compound 161]
≥ 7.00	≥ 7.00	C[C@@H](CC(F)(F)F)Nc1ncc2c(-c3cnn(C(C)(C)C(=O)C4COC4)c3)cc([C@H]3CC[C@](C)(O)CC3)n2n1 [Compound 610]
6.00 to 7.00	≥ 7.00	CC[C@]1(O)CC[C@@H](c2cc(-c3cnn(C4COC4)c3)c3cnc(N[C@@H](C)COC)nn32)CC1 [Compound 616]
6.00 to 7.00	≥ 7.00	COC[C@H](C)Nc1ncc2c(-c3ccc(C4(C(=O)O)CC4)cc3)cc([C@H]3CC[C@H](O)CC3)n2n1 [Compound 173]

pIC50 (FLT3)	pIC50 (AXL)	Structure (SMILES)
5.00 to 6.00	≥ 7.00	COC[C@H](C)Nc1ncc2c(-c3cnn(C(C)(C)c4nnc([C@@H]5CCCO5)o4)c3)cc([C@H]3CC[C@H](O)CC3)n2n1 [Compound 601]
6.00 to 7.00	6.00 to 7.00	COC[C@H](C)Nc1ncc2c(-c3ccc(C4(N5CCOCC5)CC4)cc3)cc([C@H]3CC[C@H](O)CC3)n2n1 [Compound 184]
5.00 to 6.00	≥ 7.00	COC[C@H](C)Nc1ncc2c(-c3cnn(C(C)(C)c4nc(C)co4)c3)cc([C@H]3CC[C@H](O)CC3)n2n1 [Compound 623]
6.00 to 7.00	≥ 7.00	COC[C@H](C)Nc1ncc2c(-c3cnn(CC(=O)N4CCOCC4)c3)cc([C@H]3CC[C@H](O)CC3)n2n1 [Compound 162]
6.00 to 7.00	≥ 7.00	COC[C@H](C)Nc1ncc2c(-c3cnn(C4COC4)c3)cc([C@H]3CC[C@@](O)(C(C)C)CC3)n2n1 [Compound 618]
5.00 to 6.00	6.00 to 7.00	COC[C@H](C)Nc1ncc2c(-c3ccnc(C)c3)cc([C@H]3CC[C@@H](O)CC3)n2n1 [Compound 183]
≥ 7.00	≥ 7.00	C[C@@H](CC(F)(F)F)Nc1ncc2c(-c3cnn(C(C)(C)C(=O)N4CC5(COC5)C4)c3)cc([C@H]3CC[C@H](O)CC3)n2n1 [Compound 608]
6.00 to 7.00	≥ 7.00	COC[C@H](C)Nc1ncc2c(-c3cnn(C4COC4)c3)cc([C@H]3CC[C@](O)(C(C)C)CC3)n2n1 [Compound 617]
6.00 to 7.00	≥ 7.00	CC(Nc1ncc2c(-c3ccc(CN4CCN(C)CC4)cc3)cc([C@H]3CC[C@H](O)CC3)n2n1)C(F)F (mixture of isomers) [Compound 148]
5.00 to 6.00	≥ 7.00	COC[C@H](C)Nc1ncc2c(-c3cnn(C(C)(C)C(=O)N4CC(C)(O)C4)c3)cc([C@H]3CC[C@H](O)CC3)n2n1 [Compound 622]
6.00 to 7.00	≥ 7.00	COC[C@H](C)Nc1ncc2c(-c3ccc(CN4CCN(C(C)=O)CC4)cc3)cc([C@H]3CC[C@H](O)CC3)n2n1 [Compound 150]
6.00 to 7.00	≥ 7.00	COC[C@H](C)Nc1ncc2c(-c3cnn(C(C)(C)C(=O)N4CCCC4)c3)cc([C@H]3CC[C@H](O)CC3)n2n1 [Compound 612]
≥ 7.00	≥ 7.00	COCC(C)Nc1ncc2c(-c3ccc(C(C)N4CCCC4)cc3)cc(C3CCC(O)CC3)n2n1 (stereo not shown) [Compound 164]
6.00 to 7.00	≥ 7.00	COC[C@H](C)Nc1ncc2c(-c3cnn(C)c3)cc([C@H]3CC[C@H](O)CC3)n2n1 [Compound 152]
5.00 to 6.00	≥ 7.00	COC[C@H](C)Nc1ncc2c(-c3cnn(C(C)(C)C(=O)N4CCC(C)(O)C4)c3)cc([C@H]3CC[C@H](O)CC3)n2n1 (stereo partly shown) [Compound 620]
6.00 to 7.00	≥ 7.00	COC[C@H](C)Nc1ncc2c(-c3ccnc(N4CCC(C)(O)C4)c3)cc(C3CCC(O)CC3)n2n1 (stereo partly shown) [Compound 633]
5.00 to 6.00	≥ 7.00	COC[C@H](C)Nc1ncc2c(-c3cnn(C(C)(C)c4nnc(C(F)F)o4)c3)cc([C@H]3CC[C@H](O)CC3)n2n1 [Compound 599]
≥ 7.00	≥ 7.00	COCC(C)Nc1ncc2c(-c3ccc(C(C)N4CCCC4)cc3)cc(C3CCC(O)CC3)n2n1 (stereo not shown) [Compound 166]
5.00 to 6.00	6.00 to 7.00	CNC(=O)c1ccc(-c2cc([C@H]3CC[C@H](O)CC3)n3nc(N[C@@H](C)COC)ncc23)cn1 [Compound 147]
